Assay [1] has as its system Mycobacterium tuberculosis mc^26230.

Positions of bridges follow the written chain, without caps; N, C: chain ends. Residues, ends and D or L forms follow the SMILES beside them.

As for `CC[C@H](C)[C@H](NC(=O)[C@@H](N)CCCNC(=N)N)C(=O)N[C@H]1CSSC[C@@H](C(=O)N[C@@H](Cc2c[nH]c3ccccc23)C(=O)N[C@@H](CC(N)=O)C(=O)N[C@H](C(=O)O)[C@@H](C)O)NC(=O)[C@H](CCCCN)NC(=O)[C@H](CCSC)NC(=O)[C@H](Cc2ccccc2)NC(=O)[C@@H]2CSSC[C@H](NC(=O)[C@H](C(C)C)NC(=O)[C@H](CCCNC(=N)N)NC(=O)[C@H](C(C)C)NC1=O)C(=O)N[C@@H](CCCNC(=N)N)C(=O)N[C@@H](CC(N)=O)C(=O)NCC(=O)N[C@@H](Cc1ccccc1)C(=O)N2` [V4, RIC1VRVC2RNGFC3FMKC4WNT] (H-RICVRVCRNGFCFMKCWNT-OH; disulfide 3-16, 7-12; N-terminus and C-terminus assumed), the “M. smegmatis mc^2155 MIC” value in the assay on M. smegmatis mc^2155 lay in the range of 1.49 to 4.15 µM. Further, the “P. aeruginosa MIC” value in the assay on P. aeruginosa lay in the range of 2.5 to 5 µM. Moreover, the “V. alginolyticus MIC” value in the assay on Vibrio alginolyticus is 0.312 to 0.625 µM. For the same compound, the “M. tuberculosis mc^26230 MIC” value in assay [1] lay in the range of 7.5 to 7.9 µM.

As to `CC[C@H](C)[C@@H]1NC(=O)[C@H](Cc2ccccc2)NC(=O)[C@H](CC(C)C)NC(=O)[C@@H]2CSSC[C@H](NC(=O)[C@H](CCCNC(=N)N)NC1=O)C(=O)N[C@@H](Cc1ccccc1)C(=O)N[C@@H](CCSC)C(=O)N[C@@H](CCCCN)C(=O)N[C@H](C(=O)N[C@@H](Cc1c[nH]c3ccccc13)C(=O)N[C@@H](CC(N)=O)C(=O)N[C@H](C(=O)O)[C@@H](C)O)CSSC[C@H](NC(=O)[C@H](Cc1ccccc1)NC(=O)[C@@H](N)CCCNC(=N)N)C(=O)N[C@@H](C(C)C)C(=O)N[C@@H](CCCNC(=N)N)C(=O)N[C@@H](C(C)C)C(=O)N2` [V5, RFC1VRVC2LFIRC3FMKC4WNT] (H-RFCVRVCLFIRCFMKCWNT-OH; disulfide 3-16, 7-12; N-terminus and C-terminus assumed), in the assay on M. smegmatis mc^2155, the “M. smegmatis mc^2155 MIC” value was 3.06 to 8.40 µM. Besides, the “P. aeruginosa MIC” value in the assay with P. aeruginosa is above 20 µM. Moreover, the “V. alginolyticus MIC” value with Vibrio alginolyticus was 0.625 to 1.25 µM. The “M. tuberculosis mc^26230 MIC” value in assay [1] is 5.3 to 7.9 µM.

Turning to `CC[C@H](C)[C@H](NC(=O)[C@@H](N)CCCNC(=N)N)C(=O)N[C@H]1CSSC[C@@H](C(=O)N[C@@H](Cc2c[nH]c3ccccc23)C(=O)N[C@@H](CC(N)=O)C(=O)N[C@H](C(=O)O)[C@@H](C)O)NC(=O)[C@H](CCCCN)NC(=O)[C@H](CCSC)NC(=O)[C@H](Cc2ccccc2)NC(=O)[C@@H]2CSSC[C@H](NC(=O)[C@H](C(C)C)NC(=O)[C@H](CCCNC(=N)N)NC(=O)[C@H](C(C)C)NC1=O)C(=O)N[C@@H](CCCNC(=N)N)C(=O)N[C@@H](CC(N)=O)C(=O)NCC(=O)N[C@@H](CCCNC(=N)N)C(=O)N2` [V6, RIC1VRVC2RNGRC3FMKC4WNT] (H-RICVRVCRNGRCFMKCWNT-OH; disulfide 3-16, 7-12; N-terminus and C-terminus assumed), in the assay on M. smegmatis mc^2155, the “M. smegmatis mc^2155 MIC” value fell in the range of 1.27 to 2.96 µM. Also, the “P. aeruginosa MIC” value with P. aeruginosa was above 5 µM. Besides, the “V. alginolyticus MIC” value with Vibrio alginolyticus was 0.125 to 0.312 µM. The “M. tuberculosis mc^26230 MIC” value in assay [1] was above 30 µM.

Consider `CSCC[C@@H]1NC(=O)[C@H](Cc2ccccc2)NC(=O)[C@@H]2CSSC[C@H](NC(=O)[C@H](C(C)C)NC(=O)[C@H](CCCNC(=N)N)NC(=O)[C@H](C(C)C)NC(=O)[C@@H](NC(=O)[C@@H](NC(=O)[C@H](CO)NC(=O)[C@@H](NC(=O)[C@H](C)NC(=O)[C@H](CCCCN)NC(=O)[C@@H](N)CCCNC(=N)N)C(C)C)[C@@H](C)O)CSSC[C@@H](C(=O)N[C@@H](Cc3c[nH]c4ccccc34)C(=O)N[C@@H](CC(N)=O)C(=O)N[C@H](C(=O)O)[C@@H](C)O)NC(=O)[C@H](CCCCN)NC1=O)C(=O)N[C@@H](CCCNC(=N)N)C(=O)N[C@@H](CC(N)=O)C(=O)NCC(=O)N[C@@H](Cc1ccccc1)C(=O)N2` [V7, RKAVSTC2VRVC3RNGFC4FMKCWNT] (H-RKAVSTCVRVCRNGFCFMKCWNT-OH; disulfide 7-20, 11-16 (inferred); N-terminus and C-terminus assumed), for which the “M. smegmatis mc^2155 MIC” value in the assay on M. smegmatis mc^2155 is 9.22 to 13.1 µM. The “P. aeruginosa MIC” value in the assay with P. aeruginosa is 2.5 to 5 µM. Besides, the “V. alginolyticus MIC” value in the assay on Vibrio alginolyticus was in the range of 0.125 to 0.312 µM. Further, the “M. tuberculosis mc^26230 MIC” value in assay [1] is above 30 µM.

(Values after patent publication US20250051403A1, “ANTIMICROBIAL PEPTIDES, VARIANTS AND CHEMICAL ANALOGUES THEREOF AND THEIR USES” (priority 2021, published 2025).)
